System: E. coli TOP10
Format: cell-based
Conditions: end point OD450 after 14 hours, 37 degrees Celsius
Protocol: A range of synthetic antimicrobial polypeptides were expressed in E. coli TOP10 (Invitrogen) using arabinose as inducer, as disclosed in Example 1 of International patent application WO 00/73433 (with minor modifications). […] Briefly, fresh overnight cultures grown in RM medium containing 0.2% glucose and ampicillin (100 μg/ml) were diluted 300-fold into 150 microliter of RM containing 0.2% glycerol and ampicillin (100 μg/ml) and different concentrations of arabinose (0, 0.01% or 0.1%) in a microtiter plate and incubated at 37 degrees Celsius with vigorous shaking. The growth curve was monitored by measuring OD450 using a Bioscreen C Microbiology reader (Thermo Electron Corporation) at intervals of 30 minutes for 14 hours (see Invitrogen protocol of the pBAD/gill A, B and C vectors catalogue nos. V450-01 for buffer and media composition). The percentage of growth inhibition was calculated as the end point OD measurement of each sample divided by the end point OD measurement obtained from cells containing the control vector and multiplied by 100. The formula is the following: [formula] where “blank OD” corresponds to the OD of an empty well.

Row | Sequence | Growth inhibition using 0.01% arabinose (%) | Growth inhibition using 0.1% arabinose (%)
1 | GLLKTIRKKIKRVLKHVR (Synthetic antimicrobial peptide) [SEQ ID NO:4] | 96% | 99%
2 | GLFSLLRKTIKKVLQHIR (Synthetic antimicrobial peptide) [SEQ ID NO:32] | 91% | 99%
3 | GLLSKIRKKLKRVLQSIR (Synthetic antimicrobial peptide) [SEQ ID NO:20] | 77% | 94%
4 | GLFTKLRKATKRILEHVL (Synthetic antimicrobial peptide) [SEQ ID NO:3] | 81% | 87%
5 | GMLRKLKRKVKRTLQHVL (Synthetic antimicrobial peptide) [SEQ ID NO:8] | 78% | 88%
6 | GWFSKLKKTAKKLLQRVL (Synthetic antimicrobial peptide) [SEQ ID NO:7] | 76% | 82%
7 | GLLSKIMKAVKRTLKHIL (Synthetic antimicrobial peptide) [SEQ ID NO:16] | 89% | 99%
8 | GILNIIGRAVKTVLESIR (Synthetic antimicrobial peptide) [SEQ ID NO:25] | 97% | 99%
9 | GLLSILKRKSKRILKHIL (Synthetic antimicrobial peptide) [SEQ ID NO:24] | 88% | 96%
10 | GLLSKLKRKIKKAVKHIL (Synthetic antimicrobial peptide) [SEQ ID NO:30] | 82% | 95%
11 | GLLRKLGKKIKRVVKHVG (Synthetic antimicrobial peptide) [SEQ ID NO:10] | 98% | 100%
12 | GLVTLLKKAMKNALEDVL (Synthetic antimicrobial peptide) [SEQ ID NO:21] | 98% | 99%
13 | GLWSSIKKEAKHALKHIL (Synthetic antimicrobial peptide) [SEQ ID NO:29] | 55% | 81%
14 | GLWNMLKKKLKKIAQGIR (Synthetic antimicrobial peptide) [SEQ ID NO:15] | 73% | 88%
15 | GLFSIIMRAVKKVWQRVR (Synthetic antimicrobial peptide) [SEQ ID NO:9] | 97% | 100%
16 | GLLRKLRKEVKKVLSIFFRWL (Synthetic antimicrobial peptide) [SEQ ID NO:39] | 97% | 99%
17 | GLLEKLRKALKRILQHVL (Synthetic antimicrobial peptide) [SEQ ID NO:12] | 91% | 97%
18 | GLFSILKREIKRTFSNFYRWL (GLFSILKREIKRTFSMFYRWL; Synthetic antimicrobial peptide) [SEQ ID NO:41] | 86% | 99%
19 | GWLKILEKAAKITVKNVL (Synthetic antimicrobial peptide) [SEQ ID NO:36] | 98% | 97%
20 | GLLRILKKKAKKALQHIL (Synthetic antimicrobial peptide) [SEQ ID NO:37] | 86% | 93%
21 | GLLNKIKKTIKRAVQHVL (Synthetic antimicrobial peptide) [SEQ ID NO:18] | 76% | 92%
22 | GLLNKLKRALKKVVKHVR (Synthetic antimicrobial peptide) [SEQ ID NO:33] | 84% | 94%

Row | Sequence | Growth inhibition using 0.01% arabinose (%) | Growth inhibition using 0.1% arabinose (%)
23 | GILNKLRKKLKRVLQRIL (Synthetic antimicrobial peptide) [SEQ ID NO:27] | 84% | 97%
24 | GLWRKLRRKAKKVLQHIL (Synthetic antimicrobial peptide) [SEQ ID NO:13] | 94% | 100%
25 | GMLIKLEMEAKKVVKNVL (Synthetic antimicrobial peptide) [SEQ ID NO:17] | 96% | 99%
26 | GLLRKIKMKAKKVLKNIL (Synthetic antimicrobial peptide) [SEQ ID NO:22] | 72% | 83%
27 | GLLNKLKKNVKNIVQHILRWL (Synthetic antimicrobial peptide) [SEQ ID NO:40] | 77% | 95%
28 | GLLSKLKKTVKRVVKHVR (Synthetic antimicrobial peptide) [SEQ ID NO:19] | 84% | 99%
29 | GILSMLERRWSMYCSIFCRWL (Synthetic antimicrobial peptide) [SEQ ID NO:45] | 98% | 100%
30 | GWFNKLKTKIKKTLKHVL (Synthetic antimicrobial peptide) [SEQ ID NO:11] | 72% | 90%
31 | GMLSKLGITIKIAVKHIR (Synthetic antimicrobial peptide) [SEQ ID NO:6] | 98% | 100%
32 | GLFRKLRKKVKKVLKHVL (Synthetic antimicrobial peptide) [SEQ ID NO:23] | 91% | 98%
33 | GILSKLKKAIKRILQDVLRWL (Synthetic antimicrobial peptide) [SEQ ID NO:43] | 82% | 99%
34 | GMLKKLKKKTKRAFSVFCRWL (Synthetic antimicrobial peptide) [SEQ ID NO:44] | 96% | 98%
35 | GLLGKIRKEGRNFWRVFRRWL (GLLGKIRKEGRMFWRVFRRWL; Synthetic antimicrobial peptide) [SEQ ID NO:38] | 86% | 92%
36 | GLLSRLRRATKIILKGIR (Synthetic antimicrobial peptide) [SEQ ID NO:14] | 72% | 88%
37 | GLLGKLKKELKNVLEHIYRWL (Synthetic antimicrobial peptide) [SEQ ID NO:42] | 75% | 93%
38 | GLLSKLGKAVKNILEDVV (Synthetic antimicrobial peptide) [SEQ ID NO:28] | 98% | 100%
39 | GLWRKLKKALKRAVQGVR (Synthetic antimicrobial peptide) [SEQ ID NO:5] | 91% | 96%
40 | GILSKLKKKAKNAVKMFCRWL (Synthetic antimicrobial peptide) [SEQ ID NO:46] | 92% | 96%
41 | GLLGKLKRKIKKALEGIR (Synthetic antimicrobial peptide) [SEQ ID NO:35] | 96% | 99%
42 | GLLSMLGKAVKRAVQHVL (Synthetic antimicrobial peptide) [SEQ ID NO:26] | 97% | 100%
43 | GWLRKIGKAVKKVVKRVL (Synthetic antimicrobial peptide) [SEQ ID NO:34] | 90% | 99%
44 | GLFRKLKKTIKRVLKHVP (Synthetic antimicrobial peptide) [SEQ ID NO:31] | 86% | 96%
